Source: ChEMBL document CHEMBL1157539, “Thousands of chemical starting points for antimalarial lead identification” (Nature, 2010)

These molecules were tested on Plasmodium falciparum (assay: GSK_TCMDC: Inhibition of Plasmodium falciparum 3D7 in whole erythrocytes, using parasite LDH activity as an index of growth.). Conditions: Plasmodium falciparum, 3D7.
Assay type: functional, organism-based
For CC(C)(C)N1CCC(N(Cc2ccc(-c3ccc(C(F)(F)F)cc3)cc2)C(=O)Cn2c(CCc3cccc(F)c3F)cc(=O)c3ccccc32)CC1, the XC50 was 789 nM. C1=C(c2c[nH]c3ccccc23)CCN(Cc2ccccc2)C1 gave an XC50 of 1040 nM. COc1ccc2nc3cc(Cl)ccc3c(NCCCCNc3c4ccc(Cl)cc4nc4ccc(OC)cc34)c2c1 showed an XC50 of 160 nM. In the case of Cc1ccc2[nH]c(-c3cc(-c4ccc(CO)cc4)cnc3N)nc2c1, the XC50 was 861 nM. CCNc1cc(C(=O)N[C@@H](Cc2ccccc2)[C@H](O)CNC2C3CC4CC(C3)CC2C4)cc(N2CCCCS2(=O)=O)c1 (some centres not stated) showed an XC50 of 668 nM. With COc1cccc(NC(=O)Nc2ccc(Nc3nc(C)cc(N(C)C)n3)cc2)c1 the XC50 was 169 nM. Cc1cc(NCCCOc2ccc(Cl)cc2)nc(NCc2ccccc2)n1 gave an XC50 of 782 nM. Cc1cnc(NCC2CCCCC2)nc1N[C@@H](CC(C)C)C(=O)Nc1ccccc1 was tested, and the XC50 was 869 nM. Molecule Cc1[nH]c(C)c(-c2ccc(Oc3ccc(O)cc3)cc2)c(=O)c1Cl has an XC50 of 1040 nM. Work on CCCCCCCN1CCC(CCNc2ccnc3ccc(OC)cc23)CC1 yielded an XC50 of 955 nM. Cn1cncc1C(=O)Nc1cccc(-c2cccc(-c3nc4cc(F)ccc4[nH]3)c2)c1 gave an XC50 of 493 nM. COc1nc(-n2ccc(=N)cc2)nc2ccccc12 was tested, and the XC50 was 1060 nM. For O=C(Nc1ccc(Cl)cc1)c1cccc2nc(C(F)(F)F)[nH]c12, the XC50 was 764 nM. FC(F)(F)c1ccc2[nH]c(-c3ccc(-c4cccc(CN5CCN(CCN6CCOCC6)CC5)c4)cc3)nc2c1 was tested, and the XC50 was 160 nM. With CCCNCc1ccc(-c2ccc(CN(CCOC)C(=O)[C@H]3CCCO3)cc2)nc1 the XC50 was 745 nM. With O=C(/C=C/c1ccc(Cl)c(Cl)c1)NCCCCCN1CCC(NC(=O)Nc2cccc(F)c2)CC1 the XC50 was 769 nM. Work on Cc1cc(C)n(Cc2ccc(C(=O)NCC3CCCCC3)cc2)n1 yielded an XC50 of 957 nM. Cc1cc(Cl)ccc1N(Cc1ccccc1)c1ccnc(Cl)n1 was tested, and the XC50 was 859 nM. Work on COc1ccc(C=NN=c2cc(C)[nH]c3c(C)cccc23)c2ccccc12 yielded an XC50 of 224 nM. Molecule COc1c(C2CCN(CCCCNC(=O)c3ccc(-c4ccc(C#N)cc4)nc3)CC2)ccc2c1CCCC2 has an XC50 of 530 nM. Molecule CC(C)(C)c1cc(C(=O)N2CCC(c3ccccn3)CC2)n(Cc2ccccc2)n1 has an XC50 of 955 nM. Molecule CCN(CC)CCCC(C)Nc1c2ccccc2nc2c1ccc1ccccc12 (configuration not stated) has an XC50 of 1090 nM. For N=C(N)NN=Cc1ccc2c(c1)Cc1ccccc1-2, the XC50 was 586 nM. COc1cc(CNCCC(C)C)ccc1OCc1cccc(COc2ccc(CNCCC(C)C)cc2OC)c1 was tested, and the XC50 was 492 nM. Work on CNC(=O)c1ccccc1Nc1nc(Nc2ccc(N3CCN(C)CC3)nc2)ncc1C yielded an XC50 of 1140 nM. Work on C[C@@H]([C@@H](CCCc1ccc(Cl)cc1)C(=O)N[C@H](C(=O)Nc1cccnc1)C(C)(C)C)N(O)C=O yielded an XC50 of 719 nM. Molecule FC(F)(F)c1cccc(CNCC2CCN(CC3CCCCC3)CC2)c1 has an XC50 of 402 nM. Work on COc1cc2c(cc1N1CCN(C)CC1)N(C(=O)Nc1ccc(-c3ccncc3)c(Cl)c1Cl)CC2 yielded an XC50 of 608 nM. In the case of FC(F)(F)c1cc(CNCCCNc2nc3ccncc3[nH]2)ccc1Cl, the XC50 was 1010 nM. Cc1ccc(NC(=O)NC2CCN(CCC(NC(=O)Cc3ccccc3)c3ccc(Cl)c(Cl)c3)CC2)cc1 (configuration not stated) showed an XC50 of 619 nM. For CCOc1cc(C(=O)NC2CCN(Cc3ccccc3)CC2)ccc1-c1nc2cc(Cl)c(F)cc2[nH]1, the XC50 was 802 nM. CC1(C)N=C(N)N=C(N)N1OCc1cccc2c1ccc1ccccc12 was tested, and the XC50 was 3.2 nM. O=C(NCCc1cccc(Cl)c1Cl)c1cnc(N2CCN(c3ccncc3)CC2)c(Cl)c1 showed an XC50 of 702 nM. Molecule CC1(CCc2ccccc2)N=C(N)N(Cc2ccccc2)C(=O)C1c1ccc(Cl)c(Cl)c1 (configuration not stated) has an XC50 of 805 nM. CO/C(=C\C=C\c1cc2cc(Cl)c(Cl)cc2[nH]1)C(=O)NCCCN1CCN(c2cccc(CCCO)c2)CC1 showed an XC50 of 1030 nM. In the case of CN(C)c1ccc(CN2CCC(CNC(=O)c3cc(-c4cccc(C(F)(F)F)c4)cs3)C2)cc1 (configuration not stated), the XC50 was 882 nM. Work on CCCC(=O)Nc1ccc(Cl)c(NC(=O)COc2cc(C)ccc2C(C)C)c1 yielded an XC50 of 933 nM. c1ccc2cc3c(NCCN4CCOCC4)ccnc3cc2c1 was tested, and the XC50 was 168 nM. Work on CC(O)C1CCCCN1C(=O)c1cccc(-c2ccc(-c3nc4cc(C(F)(F)F)ccc4[nH]3)cc2)c1 (configuration not stated) yielded an XC50 of 690 nM. CC1(C)N=C(N)N=C(N)N1c1cccc(C(F)(F)F)c1 gave an XC50 of 8.62 nM. Cc1cc(N[C@@H](Cc2ccccc2)C(=O)NCCc2ccccc2)nc(NCCc2cccs2)n1 showed an XC50 of 713 nM. In the case of O=C(/C=C/c1ccc(Cl)c(Cl)c1)N1CCC(CCN2CCC(c3c[nH]c4cc5c(cc34)OCO5)CC2)CC1, the XC50 was 732 nM. Molecule O=S(=O)(Nc1cccc(CCN2CCCCC2CCN2CCCC2)c1)c1ccc(-c2ccccc2)cc1 (configuration not stated) has an XC50 of 1090 nM. With Cc1cccc(Nc2nc(NCCCCN)nc3cc[nH]c(=O)c23)c1 the XC50 was 733 nM. COc1ccc2c(=NN=Cc3c(OC)ccc4ccccc34)cc(C)[nH]c2c1 was tested, and the XC50 was 777 nM. N#Cc1ccc(N/C(=N\c2ccc(-c3ccccc3)cc2)NCc2cccnc2)c(O)c1 was tested, and the XC50 was 813 nM. O=C(Nc1cccc(-c2csc(-c3nc4ccccc4[nH]3)c2)c1)c1cccnc1 gave an XC50 of 230 nM. Molecule COc1cccc2cc(C(=O)N[C@@H](CC(C)C)C(=O)N[C@H](/C=N/NC(=O)c3ccccc3)Cc3c[nH]cn3)oc12 has an XC50 of 130 nM. Work on CN1CCN(c2ccnc3cc4c(cc23)N(C(=O)Nc2ccc3c(c2)CCCC3=O)CC4)CC1 yielded an XC50 of 623 nM. O=C(NCCCN1CCN(c2cccc(Cl)c2)CC1)c1ccc(-c2nc3cc(Cl)c(Cl)cc3[nH]2)c(F)c1 was tested, and the XC50 was 826 nM. In the case of Cc1cc(Nc2ccc(OCc3ccccc3Cl)cc2)c2cc(Cl)ccc2n1, the XC50 was 433 nM. Molecule CC(C)CCN1CCCN(Cc2ccc(C(=O)NCc3ccc(Cl)cc3)cc2)CC1 has an XC50 of 1010 nM. CCOc1cc(Br)c(C(C)NC(=O)c2cccc(OC)c2)cc1OCC (configuration not stated) gave an XC50 of 168 nM. CCn1c2c(c(=N)c3ccccc31)CCC2 gave an XC50 of 505 nM. Work on COc1ccc2[nH]cc(C3CCN(Cc4ccc(NC(=O)c5ccc(-c6ccccc6)cc5)cc4)CC3)c2c1 yielded an XC50 of 765 nM. Work on CC(C)c1ccc(CN2CCC(CNC(=O)c3cc(-c4cccc(F)c4)cs3)C2)cc1 (configuration not stated) yielded an XC50 of 1660 nM. CC(C)CCNCC(O)Cn1c2ccc(Cl)cc2c2cc(Cl)ccc21 (configuration not stated) gave an XC50 of 447 nM. For CN(C)Cc1ccc(-c2cccc(Nc3nccc(NCC(O)c4ccccc4)n3)c2)cc1 (configuration not stated), the XC50 was 373 nM. Work on CCCC(C)NC(=O)[C@H](CC1CCCCC1)NC(=O)c1ccc(O)c(-c2ccc(OC)cc2)c1 (some centres not stated) yielded an XC50 of 1130 nM. In the case of Cc1ccccc1CNc1noc(-c2c(F)cccc2Cl)n1, the XC50 was 722 nM. For COc1ccccc1C1CCN(C2CCC(NC(=O)/C=C/c3ccc(C(F)(F)F)cc3F)CC2)CC1 (configuration not stated), the XC50 was 990 nM. COc1ccc(Nc2nc(N)c3cc(OC)c(OC)cc3n2)cc1OC was tested, and the XC50 was 732 nM. CCOc1ccc(-c2nc(NC(=O)COc3ccc(OC)cc3)sc2C)cc1 was tested, and the XC50 was 541 nM. In the case of CC[C@H](C)CNC(=O)c1cncc(-c2ccc(CNC3Cc4ccccc4C3)cc2)c1, the XC50 was 829 nM. In the case of COc1ccc2ncc(F)c(CCN3C[C@H](CNCc4cc(C#N)c5c(c4)OCCO5)[C@H](O)C3)c2n1, the XC50 was 582 nM. With Cc1nc(NCCc2c[nH]cn2)cc(NCc2ccccc2)n1 the XC50 was 833 nM. NC(=O)c1cccc(CNC(=O)NC[C@H]2CN(Cc3ccc(Cl)c(Cl)c3)CCO2)c1 showed an XC50 of 586 nM. For Cc1ccccc1C1CCN(c2ncc(C(=O)NC3CC3)cc2Cl)CC1, the XC50 was 697 nM. Work on COc1ccc2nccc(N3CCCN(CCNS(=O)(=O)c4ccc5c(c4)NC(=O)CS5)CC3)c2n1 yielded an XC50 of 824 nM. Work on CN1CCCC(CN2CCN(Cc3cccc(-c4ccc(-c5nc6cc(C(F)(F)F)ccc6[nH]5)cc4)c3)CC2)C1 (configuration not stated) yielded an XC50 of 145 nM. CC(Cc1ccc(C(=O)OCCOC(=O)c2ccc(CC(C)NCC(O)c3cccc(C(F)(F)F)c3)cc2)cc1)NCC(O)c1cccc(C(F)(F)F)c1 (configuration not stated) gave an XC50 of 820 nM. O=C(Cc1c[nH]cn1)Nc1cccc(-c2ccc(-c3nc4cc(C(F)(F)F)ccc4[nH]3)s2)c1 showed an XC50 of 773 nM. CC(=O)N/N=C/[C@H](CCc1ccccc1)NC(=O)[C@H](CC(C)C)NC(=O)c1ccc(OCCN2CCOCC2)cc1 showed an XC50 of 222 nM. Work on COc1ccc(NC(=O)C2c3ccccc3C(=O)N(C3CCCC3)C2c2cccs2)c(OC)c1 (configuration not stated) yielded an XC50 of 1480 nM. C[C@@H](C(=O)N1CCOCC1)N1CC[C@H](NS(=O)(=O)c2ccc3ccnc(N)c3c2)C1=O gave an XC50 of 1500 nM. For OC(CNC12CC3CC(CC(C3)C1)C2)c1cccc(C(F)(F)F)c1 (configuration not stated), the XC50 was 301 nM. Molecule CC[C@H]1CN2CC[C@H]1C[C@H]2[C@H](O)c1cc(/C=C/c2ccc(F)cc2)nc2ccc(OC)cc12 has an XC50 of 28.1 nM. Molecule CC(C)CNCc1ccc(-c2cccc(-c3nc4ccccc4[nH]3)c2)cc1 has an XC50 of 626 nM. CCCCNCc1ccc(-c2nc(CN(Cc3ccc(Cl)c(Cl)c3)C(=O)CN(C)C)cs2)cc1 was tested, and the XC50 was 805 nM. N=C1SC(=Cc2cn[nH]c2-c2ccc(F)cc2)C(=O)N1c1nccs1 gave an XC50 of 225 nM. With COc1ccc2nc(-c3ccc(C(=O)NCCCN4CCN(c5cc(Cl)ccc5OC)CC4)cc3)[nH]c2c1 the XC50 was 772 nM. Oc1ccc2ccccc2c1CNCCC1CCCCC1 showed an XC50 of 174 nM. Work on COc1ccc(-c2cccc(NC(=O)c3ccc(Cl)cc3)c2)cc1CN1CCC(O)CC1 yielded an XC50 of 791 nM. For CCNc1cc(C(=O)N[C@@H](Cc2ccccc2)[C@H](O)CN[C@H](C)C(C)(C)C)cc(N2CCCCS2(=O)=O)c1, the XC50 was 820 nM. Molecule O=C(NCCCCN1CCC(c2ccc(C(F)(F)F)cc2C(F)(F)F)CC1)c1ccc(NC(=O)c2ccc(Cl)cc2)cc1 has an XC50 of 613 nM. Work on Cc1cc(NC(=O)c2cc(S(=O)(=O)N3CCCCC3)ccc2C)no1 yielded an XC50 of 725 nM. Molecule CCNc1cc(C(=O)N[C@@H](Cc2ccccc2)[C@H](O)CNC2(C)CCCCC2)cc(N2CCCCS2(=O)=O)c1 has an XC50 of 156 nM. With Oc1ccc(CCNCCCCCCNCCc2ccc(Cl)cc2)c(Cl)c1O the XC50 was 775 nM. For CN(C)CCN(C)Cc1ccc(-c2ccc3c(Nc4ccc(F)cc4Cl)ccnc3c2)o1, the XC50 was 118 nM. Molecule COc1ccc(CCCN2C(=O)C(c3ccccc3)(c3ccccc3)N=C2N)cc1 has an XC50 of 1050 nM. Cc1c(F)cc(C(=O)NC2CC2)cc1-c1ccc2c(cnn2S(=O)(=O)c2cccs2)c1 was tested, and the XC50 was 862 nM. CN1CCN(CCc2ccc(N/C=C3\C(=O)Nc4ccc5ncccc5c43)cc2)CC1 was tested, and the XC50 was 325 nM. Nc1c(C(=O)NCCCCN2CCN(c3nsc4ccccc34)CC2)sc2ccccc12 gave an XC50 of 1320 nM. For CCCNC(=O)c1cncc(-c2ccc(CNC(CC)c3ccccc3)cc2)c1 (configuration not stated), the XC50 was 876 nM. CCOC(=O)N1CCN(CCCNc2c3ccc(Cl)cc3nc3ccc(OC)cc23)CC1 was tested, and the XC50 was 104 nM. Cc1c(C)n(C2CCCC2)c2ncnc(OC3CCN(CC(=O)NCC4CC4)CC3)c12 gave an XC50 of 891 nM. Work on CCN(CC)CC(O)Cc1c2ccc([N+](=O)[O-])cc2nc2cc(OC)c(OC)cc12 (configuration not stated) yielded an XC50 of 739 nM.
